Experimental data published in BindingDB's records for doi:10.1016/0024-3205(96)00449-3 (Eli Lilly, 1996).

What was measured:
[1] = molecular target: T1, 5-hydroxytryptamine receptor 2C (Homo sapiens, UniProt P28335)
T1 sequence (P28335 whole entry): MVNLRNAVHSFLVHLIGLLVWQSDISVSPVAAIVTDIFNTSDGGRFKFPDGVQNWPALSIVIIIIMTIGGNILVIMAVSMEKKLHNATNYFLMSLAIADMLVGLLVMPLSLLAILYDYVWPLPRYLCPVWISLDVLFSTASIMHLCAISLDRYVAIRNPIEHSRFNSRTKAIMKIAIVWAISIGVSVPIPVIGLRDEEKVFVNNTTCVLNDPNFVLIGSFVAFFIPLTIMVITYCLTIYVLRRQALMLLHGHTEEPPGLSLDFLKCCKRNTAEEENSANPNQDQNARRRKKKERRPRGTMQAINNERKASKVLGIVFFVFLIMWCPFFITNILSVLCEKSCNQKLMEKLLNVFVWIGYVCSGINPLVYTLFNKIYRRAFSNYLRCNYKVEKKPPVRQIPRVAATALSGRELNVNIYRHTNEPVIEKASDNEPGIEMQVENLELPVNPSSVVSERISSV

[2] = molecular target: 5-hydroxytryptamine receptor 2B (Homo sapiens, UniProt P41595)
Sequence of 5-hydroxytryptamine receptor 2B (P41595 whole entry): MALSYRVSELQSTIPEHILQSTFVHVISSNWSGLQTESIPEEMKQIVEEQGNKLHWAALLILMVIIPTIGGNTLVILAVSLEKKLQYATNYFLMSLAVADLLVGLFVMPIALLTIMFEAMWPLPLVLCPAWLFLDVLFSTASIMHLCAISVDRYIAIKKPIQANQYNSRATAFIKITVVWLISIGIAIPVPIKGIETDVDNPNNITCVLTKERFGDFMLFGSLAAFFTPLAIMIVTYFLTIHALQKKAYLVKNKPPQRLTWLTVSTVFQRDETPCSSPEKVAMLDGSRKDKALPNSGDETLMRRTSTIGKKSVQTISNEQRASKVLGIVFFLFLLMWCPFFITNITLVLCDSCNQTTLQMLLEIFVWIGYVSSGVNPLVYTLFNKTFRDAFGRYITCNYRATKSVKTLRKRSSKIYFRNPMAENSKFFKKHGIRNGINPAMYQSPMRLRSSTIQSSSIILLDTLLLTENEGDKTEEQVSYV

[3] = molecular target: 5-hydroxytryptamine receptor 2A (Homo sapiens, UniProt P28223)
Sequence of 5-hydroxytryptamine receptor 2A (P28223 whole entry): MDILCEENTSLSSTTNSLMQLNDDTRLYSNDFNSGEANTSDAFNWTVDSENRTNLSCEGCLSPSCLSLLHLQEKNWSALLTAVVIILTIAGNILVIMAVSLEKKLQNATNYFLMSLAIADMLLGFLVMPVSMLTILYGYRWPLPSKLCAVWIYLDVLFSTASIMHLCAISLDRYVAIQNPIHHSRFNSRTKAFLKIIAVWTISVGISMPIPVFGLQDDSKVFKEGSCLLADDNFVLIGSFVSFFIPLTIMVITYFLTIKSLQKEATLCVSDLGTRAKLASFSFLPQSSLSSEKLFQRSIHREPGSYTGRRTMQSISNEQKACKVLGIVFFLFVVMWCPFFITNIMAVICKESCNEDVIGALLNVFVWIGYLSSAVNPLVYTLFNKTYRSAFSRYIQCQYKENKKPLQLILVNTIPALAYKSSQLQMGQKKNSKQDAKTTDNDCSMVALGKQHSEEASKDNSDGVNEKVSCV

SMILES | Ki [1] [nM] | Ki [2] [nM] | Ki [3] [nM]
CCCc1cc(C(C)(C)C)ccc1Oc1cccc(C=NN=C(N)N)c1 [LY 320951] | 1190 | 2930 | 839
NC(N)=NN=C(c1ccccc1)C1CCC(Cl)S1 (stereo not drawn) [LY 063518] | 1660 | 472 | 137
NC(N)=NN=Cc1cccc(OCc2ccc(C(=O)c3ccccc3)cc2)c1 [LY 334362] | 91 | 477 | 179

Now from value to compound:

Ki [1] [nM] | Ki [2] [nM] | Ki [3] [nM] | SMILES
401 | 388 | 569 | Cc1ccc(C)c(COc2ccc(C=NN=C(N)N)cc2)c1 [LY 334359]
188 | 465 | 248 | CCCc1c(COc2ccc(C=NN=C(N)N)c(OC)c2)ccc(C(=O)CC)c1O [LY 320950]
168 | 1210 | 65 | CCCc1c(COc2ccc(C=NN=C(N)N)cc2)ccc(C(C)=O)c1O [LY 314228]
257 | 1640 | 96 | CCCc1c(COc2ccc(C=NN=C(N)N)cc2)ccc(C(=O)CC)c1O [LY 320954]
9730 | 7910 |  | CCc1c(COc2ccc(C=O)cc2)ccc(C(C)=O)c1O [LY 335102]
